Reference: patent publication US7183112B2, “Uses for anti-malarial therapeutic agents” (APT Pharmaceuticals, LLC, priority 1999, dated 2007)
“And” between values parts separate entries of the source, which are not always exact repeats. Identical values can stand only once.

Legend:
[1] = tested on: Ascaris-sensitized sheep; assay: Airway responsiveness to inhaled carbachol (PC400), Examples 1-2; format: in vivo; conditions: for ORC #2 (24 P-Ag.) (carbachol reactivity, PC 400) / ORC #1 BSLN. (carbachol reactivity, PC 400): Example 2, aerosol 40 mg b.i.d. (2 mg/kg/day); for ORC #2 (24 P-Ag.) (carbachol reactivity, PC 400): 24 hour post-antigen challenge; for ORC #1 BSLN. (carbachol reactivity, PC 400): baseline
Experimental: Dose Response Curves to Inhaled Carbachol: For the carbachol dose response curves, measurements of SRL were repeated immediately after inhalation of buffer and after each administration of 10 breaths of increasing concentrations of carbachol solution (0.25%, 0.5%, 1.0%, 2.0% and 4.0% w/v). To assess airway responsiveness, the cumulative carbachol dose in breath units (BU) that increased SRL 400% over the post-buffer value (i.e. PC400) was calculated from the dose response curve. One breath unit was defined as one breath of a 1% w/v carbachol solution.
At 3 to 4 days before treatment was begun, baseline airway responsiveness, to aerosol carbachol (i.e., PC400) was determined and a baseline bronchial biopsy performed. […] The animals were treated two times a day for 3 days and then, on the fourth day, at 0.5 hours before antigen challenge and again at 4 hours after challenge. On the antigen-challenge day, SRL was measured and the animals were than treated with HCQ designated compound. SRL was remeasured 0.5 h after treatment (just before challenge) and the animals were then challenged with antigen. SRL was then remeasured immediately after.
(§1) On the fourth day, they received an additional treatment one-half hour prior to antigen challenge.

[2] = tested on: IL-4; conditions: Seggev J Immunol 150:62A; cited from earlier work
[3] = tested on: Ascaris-sensitized sheep; assay: Antigen-induced changes in specific lung resistance (early and late responses), Examples 1-2; format: in vivo; conditions: for Specific resistance, +1 HR % / Specific resistance, +1 HR Srl: 1 h post antigen; for Specific resistance, +2 HRS % / Specific resistance, +2 HRS Srl: 2 h post antigen; for Specific resistance, P-ASC % / Specific resistance, P-ASC Srl: immediately post Ascaris antigen; for Specific resistance, P-pl/dg % (immediate) / Specific resistance, P-pl/dg Srl (immediate): immediately post drug; for Specific resistance, P-pl/dg % (just before Ag) / Specific resistance, P-pl/dg Srl (just before Ag): post drug, just before antigen; for Specific resistance, +3 HRS % / Specific resistance, +3 HRS Srl: 3 h post antigen
Experimental: All procedures were approved by the Mount Sinai Medical Center Animal Research Committee, which is responsible for assuring the humane care and use of experimental animals.
Measurement of Airway Mechanics: The unsedated sheep were restrained in a cart in the prone position with their heads immobilized. After topical anesthesia of the nasal passages with 2% lidocaine solution, a balloon catheter was advanced through one nostril into the lower esophagus. The animals were […] with a cuffed endotracheal tube through the other nostril using a flexible fiberoptic bronchoscope as a guide. […] Pleural pressure was estimated with the esophageal balloon catheter (filled with one ml of air) which was positioned 5–10 cm from the gastroesophageal junction. […] Once the balloon was placed, it was secured so that it remained in position for the duration of the experiment. Lateral pressure in the trachea was-measured with a sidehole catheter (inner dimension, 2.5 mm) advanced through and positioned distal to the tip of the endotracheal tube. Transpulmonary pressure, the difference between tracheal and pleural pressure, was measured with a differential pressure transducer catheter system. For the measurement of pulmonary resistance (RL), the proximal end of the endotracheal tube was connected to a pneumotachograph (Fleisch No. 1; Dyna Sciences, Inc., Blue Bell, Pa.). […] The mean of at least five breaths, free of swallowing artifact, was used to obtain RL in cm H2O/L/s. Immediately after the measurement of RL, thoracic gas volume (Vtg) was measured in a constant-volume body plethysmograph to obtain specific lung resistance (SRL=RL×Vtg) in L×cm H2O/L/s.
Aerosol Delivery Systems: Aerosols of Ascaris suum extract (diluted 20:1 with phosphate buffered saline; 82,000 PNU/ml) were generated using a disposable medical nebulizer (Raindrop^R, Puritan Bennett), which produces an aerosol with a mass median aerodynamic diameter of 3.2 μm (geometric standard deviation, 1.9) as determined by a 7 stage Andersen cascade impactor. The output from the nebulizer was directed into a plastic T-piece, one end of which was connected to the inspiratory port of a Harvard respirator. […] The aerosol was delivered at a tidal volume of 500 ml and a rate of 20 breaths per minute for 20 minutes. Each sheep was challenged with an equivalent dose of antigen (400 breaths) in the control and drug trials. Carbachol aerosols were also generated with this same nebulizer system.
At 3 to 4 days before treatment was begun, baseline airway responsiveness, to aerosol carbachol (i.e., PC400) was determined and a baseline bronchial biopsy performed. […] The animals were treated two times a day for 3 days and then, on the fourth day, at 0.5 hours before antigen challenge and again at 4 hours after challenge. […] SRL was remeasured 0.5 h after treatment (just before challenge) and the animals were then challenged with antigen. SRL was then remeasured immediately after.
as §1

[4] = Example 1, aerosol 30 mg/animal (0.78 mg/kg) twice a day, Mean
[5] = Example 1, aerosol 30 mg/animal (0.78 mg/kg) twice a day, individual sheep
[6] = Example 2, aerosol 40 mg b.i.d. (2 mg/kg/day)
[7] = Example 2, aerosol 40 mg b.i.d. (2 mg/kg/day), Mean of 2 sheep
[8] = Example 2, aerosol 40 mg b.i.d. (2 mg/kg/day), individual sheep

CCN(CCO)CCCC(C)Nc1ccnc2cc(Cl)ccc12 (centres unmarked) [HCQ, hydroxychloroquine]
ORC #2 (24 P-Ag.) (carbachol reactivity, PC 400) ([1]; Mean of 2 sheep): 15.82 breath units | ORC #2 (24 P-Ag.) (carbachol reactivity, PC 400) ([1]; individual sheep): 15.86 breath units and 15.77 breath units | ORC #1 BSLN. (carbachol reactivity, PC 400) ([1]; Mean of 2 sheep): 12.74 breath units | ORC #1 BSLN. (carbachol reactivity, PC 400) ([1]; individual sheep): 10.65 breath units and 14.83 breath units | effect on bronchial hyperresponsiveness ([1]; inhaled (nebulized), twenty-four hours later, summary of animal studies): continued effect at blocking | effect on the actions of IL-4 [2]: blocks | Specific resistance, +1 HR % [3, 4]: 38% | Specific resistance, +1 HR Srl [3, 4]: 1.39 L×cm H2O/L/s | Specific resistance, +1 HR % [3, 5]: 32% and 43% and 30% | Specific resistance, +1 HR Srl [3, 5]: 1.35 L×cm H2O/L/s and 1.49 L×cm H2O/L/s | Specific resistance, +2 HRS % [3, 4]: 42% | Specific resistance, +2 HRS Srl [3, 4]: 1.44 L×cm H2O/L/s | Specific resistance, +2 HRS % [3, 5]: 11% and 74% and 4% | Specific resistance, +2 HRS Srl [3, 5]: 1.13 L×cm H2O/L/s and 1.74 L×cm H2O/L/s and 1.2 L×cm H2O/L/s | Specific resistance, P-ASC % [3, 4]: 95% | Specific resistance, P-ASC Srl [3, 4]: 1.97 L×cm H2O/L/s | Specific resistance, P-ASC % [3, 5]: 140% and 49% and 189% | Specific resistance, P-ASC Srl [3, 5]: 2.45 L×cm H2O/L/s and 1.49 L×cm H2O/L/s and 3.32 L×cm H2O/L/s | Specific resistance, P-pl/dg % (immediate) [3, 4]: 10% | Specific resistance, P-pl/dg Srl (immediate) [3, 4]: 1.11 L×cm H2O/L/s | Specific resistance, P-pl/dg % (immediate) [3, 5]: 18% and 2% and 19% | Specific resistance, P-pl/dg Srl (immediate) [3, 5]: 1.20 L×cm H2O/L/s and 1.02 L×cm H2O/L/s and 1.37 L×cm H2O/L/s | Specific resistance, P-pl/dg % (just before Ag) [3, 4]: 2% | Specific resistance, P-pl/dg Srl (just before Ag) [3, 4]: 1.03 L×cm H2O/L/s | Specific resistance, P-pl/dg % (just before Ag) [3, 5]: 9% and −5% and −2% | Specific resistance, P-pl/dg Srl (just before Ag) [3, 5]: 1.11 L×cm H2O/L/s and 0.95 L×cm H2O/L/s and 1.13 L×cm H2O/L/s | effect on acute reactions [3, 6]: not inhibited | effect on late phase asthmatic reactions [3, 6]: virtually completely blocked | Specific resistance, +1 HR % [3, 7]: 132% | Specific resistance, +1 HR Srl [3, 7]: 2.43 L×cm H2O/L/s | Specific resistance, +1 HR % [3, 8]: 171% and 93% | Specific resistance, +1 HR Srl [3, 8]: 2.76 L×cm H2O/L/s and 2.10 L×cm H2O/L/s | Specific resistance, +2 HRS % [3, 7]: 69% | Specific resistance, +2 HRS Srl [3, 7]: 1.74 L×cm H2O/L/s | Specific resistance, +2 HRS % [3, 8]: 102% and 36% | Specific resistance, +2 HRS Srl [3, 8]: 2.06 L×cm H2O/L/s and 1.48 L×cm H2O/L/s | Specific resistance, +3 HRS % [3, 7]: 50% | Specific resistance, +3 HRS Srl [3, 7]: 1.58 L×cm H2O/L/s | Specific resistance, +3 HRS % [3, 8]: 54% and 46% | Specific resistance, +3 HRS Srl [3, 8]: 1.57 L×cm H2O/L/s and 1.59 L×cm H2O/L/s | Specific resistance, +4 HRS % ([3]; Example 2, aerosol 40 mg b.i.d. (2 mg/kg/day), 4 h post antigen, Mean of 2 sheep): 19%
